Experiment [1] concerns R/F pyocin gene transcription (P07990-lux reporter). Briefly: Kinetic luciferase assay, P07990-lux reporter for R/F pyocin expression. The class given is cell-based, Pseudomonas aeruginosa. Here is the method: Strains of interest were cultured as described in the growth curve analysis section. Luminescence was measured in black or white clear-bottom 96-well microtiter plates at 3-min intervals at a sensitivity (gain) setting of 135 or 200 together with the OD600 for 20 hours on a BioTek Synergy H1 plate reader (BioTek, USA). Final luciferase activity values were calculated by normalizing luciferase luminescence to culture density.
Strains of interest were grown on LB plates overnight, and single colonies were inoculated into LB liquid broth with appropriate antibiotics and grown overnight with shaking at 37° C. Strains were then diluted 1,000-fold into fresh LB medium and grown to early exponential phase (2-4 hours). […] The plate was incubated in a BioTek Synergy H1 plate reader (BioTek, USA) at 37° C. for 20 h with double-orbital shaking. OD600 and luminescence (gain=135, integration time, 1 sec) measurements were obtained every 10 minutes. At least 3 biological replicates were assayed for each combination of strain and condition. Results were analyzed in MS Excel and plotted using GraphPad Prism.

Experiment [2] has as its system Pseudomonas aeruginosa PA14. Kind of experiment: Growth curve analysis (OD600) in LB-Lennox. The class given is cell-based. As for the experimental part: Strains of interest were grown on LB plates overnight, then inoculated into LB liquid broth until late stationary phase was reached (about 18 hours). Strains were then diluted 1,000-fold into fresh medium and grown to early exponential phase (about 4 hours). The optical density at 600 nm (OD600) was measured, and all cultures were normalized to an OD600 equal to 0.1. […] The plate was incubated in a BioTek Synergy H1 plate reader (BioTek, USA) at 37° C. for 20 h with orbital shaking. OD600 measurements were obtained every 2 minutes. […]

For experiment [3], the system named is R/F pyocin expression (P07990-gfp reporter). The class given is cell-based, Pseudomonas aeruginosa. The following applies: wild-type PA14; 50 μM peptide, 135 min.
Method: Strains of interest were grown in 3 mL of LB liquid broth overnight to obtain a saturated culture. They were then diluted 1,000-fold in fresh LB and grown to early exponential phase (about 4 hours). Cultures were concentrated by centrifuging 1 mL of exponential culture into a microcentrifuge tube at 5000 g for 1 min and resuspending in 100 μL. Cells were immobilized by spotting 0.5 μL of the concentrated mixture onto the pad and covering with cover glass. Imaging was performed on a Nikon Eclipse Ti inverted fluorescence microscope equipped with a Photometrics Prime 95B sCMOS digital camera, a Lumencor SOLA SE II 365 LED Light Engine, and an OKO temperature-controlled enclosure. Snapshot images of the slides were taken at 100× magnification in both phase and GFP channels. Automated timelapse imaging was performed at 37° C. For quantification of GFP-positive cells, images were analyzed using the MicrobeJ plugin for ImageJ, segmenting on phase-contrast and taking the mean GFP values of the corresponding fluorescence images. […]
Strains of interest were grown in 3 mL of LB liquid broth with appropriate antibiotics overnight. […] Imaging was immediately performed using a Nikon Eclipse Ti inverted fluorescence microscope with a Photometrics Prime 95B sCMOS digital camera, a Lumencor SOLA SE II 365 LED Light Engine, and an OKO temperature-controlled enclosure. […]
Where [4] appears, read: wild-type cells, 0.1-50 μM peptide with 0.03 μg/ml ciprofloxacin.
[5] abbreviates: wild-type cells, peptide 25-100 μM.
The mark [6] stands for this setting: wild-type cells, peptide concentrations in the 0.1-10 μM range (inhibitor: below 10 μM).
Setting [7] is: wild-type cells, 50 μM peptide co-treatment with 0.03 μg/ml ciprofloxacin.

Regarding `CO[C@@]12[C@H](COC(N)=O)C3=C(C(=O)C(C)=C(N)C3=O)N1C[C@@H]1N[C@@H]12` [MMC, mitomycin C], the “peak pyocin expression, OD-normalized” value in experiment [1] (wild-type cells, 0.1 μg/ml MMC) is reported as “peaked at approximately tenfold that induced by ciprofloxacin”. The pyocin expression result in experiment [1] (xerCY272F ΔrecA, 0.1 μg/ml MMC) was “abolished ciprofloxacin- and MMC-mediated stimulation of pyocin expression”; in experiment [1] (xerCY272F, 0.1 μg/ml MMC), “less expression in xerCY272F cultures than in the wild type”; in experiment [1] (ΔprtN (wild-type background), 0.1 μg/ml MMC), “deletion of prtN abolished the ability of MMC to stimulate pyocin expression”; in experiment [1] (ΔrecA, 0.1 μg/ml MMC) it was “deletion of recA fully abolished this very strong MMC-stimulated pyocin induction”; in experiment [1] (ΔxerC ΔprtN, 0.1 μg/ml MMC) it was “fully abrogated pyocin expression”; in experiment [1] (ΔxerC ΔrecA, 0.1 μg/ml MMC) it was “independent of RecA”. For the same compound, the “peak pyocin expression relative to untreated cells” value in experiment [1] (ΔxerC cells, 0.1 μg/ml MMC) is reported as “approximately twofold stronger, peak of expression than in untreated cells”. The culture growth entry in experiment [2] (wild-type cells, 0.1 μg/ml MMC) is on record as “inhibited cell growth to a slightly greater degree than 0.03 μg/ml ciprofloxacin”; in experiment [2] (xerCY272F, 0.1 μg/ml MMC), “initially outgrew both untreated control cultures”.

Take `O=C(O)c1cn(C2CC2)c2cc(N3CCNCC3)c(F)cc2c1=O` [ciprofloxacin]: the culture growth entry in experiment [2] (WT PA14 cells, 0.03 μg/ml ciprofloxacin) is “slower growth en route to a slightly lower final OD”; in experiment [2] (xerCY272F, 0.03 μg/ml ciprofloxacin) it was “initially outgrew both untreated control cultures”. The “OD600 reached in growth curve” value in experiment [2] (Δ69700 cells, 0.03 μg/ml ciprofloxacin) is on record as 0.8. In experiment [2] (ΔxerC strain, 0.03 μg/ml ciprofloxacin), the “culture growth (ciprofloxacin sensitivity)” value is “sensitivity to ciprofloxacin similar to Δ69700”.

On to WKHYNY, for which the pyocin expression result in experiment [1] (setting [4]) was “impacted neither culture growth nor pyocin expression”; in experiment [1] (setting [5]) it was “Neither the WRWYCR inhibitor nor the WKHYNY control elicited pyocin expression beyond the level of untreated cells”; in experiment [1] (ΔxerC cells, peptide 25-100 μM), “no differences in pyocin expression were observed”. The culture growth result in experiment [2] (setting [4]) was “impacted neither culture growth nor pyocin expression”; in experiment [2] (setting [5]) it was “no inhibition of growth”; in experiment [2] (setting [6]) it was “correspondingly smaller effects, as did the control peptide”; in experiment [2] (ΔxerC cells, peptide 25-100 μM) it was “inhibited by WRWYCR but not WKHYNY”.

With WRWYCR, the pyocin expression result in experiment [1] (wild-type cells, 10 μM peptide co-treatment with 0.03 μg/ml ciprofloxacin) is “earlier and higher peak of pyocin expression relative to ciprofloxacin alone”; in experiment [1] (setting [7]), “later peak of pyocin expression”; in experiment [1] (wild-type cells, 0.1-10 μM peptide), “no increase in pyocin expression over untreated cells”; in experiment [1] (setting [5]) it was “Neither the WRWYCR inhibitor nor the WKHYNY control elicited pyocin expression beyond the level of untreated cells”; in experiment [1] (ΔxerC cells, peptide 25-100 μM), “no differences in pyocin expression were observed”. Further, the “GFP fluorescence of pyocin-GFP reporter cells” value in experiment [3] is on record as “did not elicit GFP fluorescence”. For the same compound, the culture growth result in experiment [2] (wild-type cells, 10 μM peptide) is reported as “affected culture growth to a similar degree as 0.03 μg/ml ciprofloxacin”; in experiment [2] (setting [7]), “initial inhibition of growth”; in experiment [2] (setting [5]), “markedly impaired P. aeruginosa growth”; in experiment [2] (setting [6]) it was “correspondingly smaller effects”; in experiment [2] (ΔxerC cells, peptide 25-100 μM), “inhibited”.

For the origin of these results see patent publication US20250115942A1, “SCREENING METHOD FOR ANTI-PSEUDOMONAL AGENTS AND COMPOSITIONS AND METHODS FOR TREATING PSEUDOMONAS INFECTIONS” (Board of Regents for Oklahoma Agricultural and Mechanical …, priority 2021, published 2025).
